Results published in patent US20070197657A1, “Method for treating non-inflammatory musculoskeletal pain” (SRZ Properties, Inc., priority 2005, published 2007).
“Also recorded” adds a separate entry of the source.

Assays:
[1] = tested on: TNF-induced reduction of grip strength; experiment: biceps muscle grip strength after TNF-induced muscle pain; format: in vivo, rat; conditions: for reversal of TNF-induced reduction of grip strength: TNF 1 μg i.m. biceps brachii
Source text: (§1) The model used in this example is applicable to musculoskeletal pain which occurs in fibromyalgia, myofascial pain syndrome or back pain. For comparative purposes, the non-opioid analgesic dipyrone (metamizol) and the anticonvulsants pregabalin and gabapentin were included in the study.
(§2) Adult male Sprague Dawley rats with a body weight of 250 g to 300 g were used (supplier: Charles River, Sulzfeld, Germany). Animals were group-housed (3 animals per cage) and maintained in a room with controlled temperature (21-22° C.) and a reversed light-dark cycle (12 h/12 h) with food and water available ad libitum. All experiments were approved by the Bavarian State animal experimentation committee and carried out in accordance with its regulations.
(§3) Recombinant rat tumor necrosis factor alpha (herein referred to as TNF) was obtained from R&D Systems, Minneapolis, Minn., U.S.A. TNF was diluted in 0.9% NaCl and used in a concentration of 1 μg in 50 μl. Injections were performed in short halothane narcosis with a 30 g needle bilaterally into the gastrocnemius or into the biceps brachii muscle. All rats were used to the behavioral tests before injections and baseline values were recorded over three test days.
Grip strength of the forelimbs was tested with a digital grip force meter (DFIS series, Chatillon, Greensboro, N.C., U.S.A.). The rat was positioned to grab the grid with the forelimbs and was gently pulled so that the grip strength could be recorded. Means of three trials were calculated. The effect of the TNF treatment was calculated for each animal separately and only animals with a significant TNF effect were included for further analysis.
Rats were injected with TNF into the biceps brachii muscle at 8 am. Six hours later, grip strength of the forelimbs was tested with a digital grip force meter. Test drug was administered, and grip strength was again tested after 30 to 60 minutes.
(§4) The rats, initially 10 per group, were treated with either 3, 10 or 30 mg/kg lacosamide, 2 mg/kg metamizol, 30 or 100 mg/kg pregabalin, 100 mg/kg gabapentin, or the NaCl vehicle, i.p. (intraperitoneally). Volume of i.p. injections was 0.5 ml. A pilot study was performed to confirm that i.m. (intramuscular) injection of 1 μg TNF into the gastrocnemius muscle was sufficient to induce pressure hyperalgesia.
(§5) Data are shown in graphs displaying means and standard errors of the means (SEM). Pre- and post-treatment data were compared using ANOVA (analysis of variance) and a Tukey post hoc test. Means of treatment groups were compared using a one-way ANOVA and Dunnett's post hoc test. Maximal possible effects (MPE) were calculated for all types of treatment.

[2] = tested on: monosodium iodoacetate-induced tactile allodynia; experiment: monosodium iodoacetate-induced tactile allodynia (von Frey filaments); format: in vivo, rat
[3] = tested on: muscle pressure hyperalgesia induced by TNF; experiment: TNF-induced muscle pressure hyperalgesia (Randall-Selitto, gastrocnemius muscle); format: in vivo, rat; conditions: for reversal of muscular mechanical hyperalgesia (withdrawal threshold to muscle pressure): TNF 1 μg i.m. gastrocnemius, 30 mg/kg
Source text: as §1, §2, §3
Mechanical withdrawal thresholds to muscle pressure were measured with an analgesimeter (Ugo Basile, Comerio, Italy). The rat was allowed to crawl into a sock which helps the rat to relax. The hind limbs were positioned such that an increasing pressure could be applied onto the gastrocnemius muscle (maximum 250 g). The pressure needed to elicit withdrawal was recorded. Means of 3 trials for each hind limb were calculated (interstimulus interval of >30 sec). Only animals with a significant TNF effect were included for further analysis.
Rats were injected with TNF into the gastrocnemius muscle at 2 pm. Eighteen hours later, rats were tested for pressure hyperalgesia pre- and post-administration of the test drug. Rats were tested for pressure hyperalgesia 30 to 60 minutes after drug administration.
as §4, §5

[4] = tested on: formalin-induced flinching and licking of the affected paw; experiment: rat formalin paw test (late phase); format: in vivo
Procedure: Rats were given an intraplantar injection of 5% formalin (50 μl) into the posterior left paw. This treatment induces a recognizable flinching and licking response of the affected paw in control animals. The number of flinches was counted for 15 minutes, beginning 20 minutes after injection of formalin. The time spent licking the affected paw was also recorded.
Male Rj: Wistar (Han) rats, 10 per group, weighing 100-130 g at the beginning of the experiments were studied per group. The test was performed blind.
Lacosamide (20 mg/kg), gabapentin (50 and 100 mg/kg), combinations of lacosamide (20 mg/kg) with gabapentin (50 and 100 mg/kg), and vehicle were administered i.p. 10 minutes before injection of formalin.
Lacosamide (10 and 20 mg/kg), morphine (2 and 4 mg/kg), combinations of lacosamide (10 and 20 mg/kg) with morphine (2 and 4 mg/kg), and vehicle were administered i.p. 10 minutes before injection of formalin.
Lacosamide (10 mg/kg), duloxetine (8 mg/kg), a combination of lacosamide (10 mg/kg) with duloxetine (8 mg/kg), and vehicle were administered i.p. 10 minutes before injection of formalin.
Lacosamide (10 and 20 mg/kg), memantine (4 and 8 mg/kg), combinations of lacosamide (10 and 20 mg/kg) with memantine (4 and 8 mg/kg), and vehicle were administered i.p. 10 minutes before injection of formalin.
Lacosamide (10 and 20 mg/kg), naproxen (8 and 16 mg/kg), combinations of lacosamide (10 and 20 mg/kg) with […] (8 and 16 mg/kg), and vehicle were administered i.p. 10 minutes before injection of formalin. Morphine (8 mg/kg) was included as a comparative treatment.

[5] = tested on: monosodium iodoacetate-induced mechanical hyperalgesia; experiment: monosodium iodoacetate-induced mechanical hyperalgesia (Randall-Selitto paw pressure); format: in vivo, rat; conditions: for mechanical hyperalgesia (paw pressure withdrawal threshold): day 7
[6] = Example 3, lacosamide 20 mg/kg i.p.
[7] = Example 4, lacosamide 10 mg/kg i.p.
[8] = Example 4, lacosamide 20 mg/kg i.p.
[9] = Example 5, lacosamide 10 mg/kg i.p.
[10] = Example 6, lacosamide 10 mg/kg i.p.
[11] = Example 6, lacosamide 20 mg/kg i.p.
[12] = Example 7, lacosamide 10 mg/kg i.p.
[13] = Example 7, lacosamide 20 mg/kg i.p.

For `COC[C@@H](NC(C)=O)C(=O)NCc1ccccc1` [Lacosamide, (R)-2-acetamido-N-benzyl-3-methoxypropionamide], the “MPE (maximal possible effect) on biceps muscle grip strength, versus vehicle” value ([1]; 10 mg/kg i.p.) was “significantly different from vehicle”, the “MPE (maximal possible effect) on biceps muscle grip strength, versus vehicle” value ([1]; 30 mg/kg i.p.) was “significantly different from vehicle” and the “reversal of TNF-induced reduction of grip strength” value ([1]; 10 mg/kg i.p., 10 mg/kg) was “significant reversal; also recorded: reversed the effect of TNF”. The “reversal of TNF-induced reduction of grip strength” value ([1]; 30 mg/kg i.p.) was “significant reversal”, the “potency compared with pregabalin and gabapentin” value ([1]; grip strength test) was “more potent” and the “tactile allodynia of iodoacetate-treated rats” value (from here on “tactile allodynia”) ([2]; day 3, 30 mg/kg (lacosamide p.o., diclofenac s.c.)) was “improved”. The “tactile allodynia” value ([2]; day 7, 30 mg/kg (lacosamide p.o., diclofenac s.c.)) was “improved”, the “tactile allodynia” value ([2]; day 14, 30 mg/kg (lacosamide p.o., diclofenac s.c.)) was “not on day 14” and the “tactile allodynia” value ([2]; lower doses of lacosamide (3, 10 mg/kg p.o.)) was “showed a trend for such improvement”. For the same compound, the “MPE (maximal possible effect) on muscle pressure hyperalgesia, versus vehicle” value ([3]; 10 mg/kg i.p.) was “significantly different from vehicle”, the “MPE (maximal possible effect) on muscle pressure hyperalgesia, versus vehicle” value ([3]; 30 mg/kg i.p.) was “significantly different from vehicle” and the “reversal of muscular mechanical hyperalgesia (withdrawal threshold to muscle pressure)” value ([3]; 30 mg/kg i.p.) was “full reversal”. The “reversal of muscular mechanical hyperalgesia (withdrawal threshold to muscle pressure)” value ([3]; 30 mg/kg i.p., listed as lacosamide) was “complete reversal”, the “effect on muscle pain in comparison to pregabalin and gabapentin” value ([3]; paw pressure test) was “stronger effect” and the “Licking time % change (a): compared with vehicle control” value (“Licking time % change” for short) [4, 6] was −34%. The “Licking time (seconds) mean ± SEM” value [4, 6] was 146.9 ± 23.8 s, the “No. of flinches % change (a): compared with vehicle control” value (“No. of flinches % change” below) [4, 6] was −33% and the “No. of flinches mean ± SEM” value [4, 6] was 85.7 ± 14.3. For the same compound, the “decrease in the number of flinches as compared with vehicle controls” value (from here on “decrease in the number of flinches”) [4, 6] was 33%, the “decrease in the time spent licking as compared with vehicle controls” value [4, 6] was 34% and the “Licking time % change” value [4, 7] was −28%. For the same compound, the “Licking time (seconds) mean ± SEM” value [4, 7] was 210.1 ± 22.7 s, the “No. of flinches % change” value [4, 7] was “+22%” and the “No. of flinches mean ± SEM” value [4, 7] was 182.7 ± 25.9. For the same compound, the “decrease in the time spent licking as compared with vehicle controls” value [4, 7] was 28%, the “increase in the number of flinches as compared with vehicle controls” value [4, 7] was 22% and the “Licking time % change” value [4, 8] was −56%. The “Licking time (seconds) mean ± SEM” value [4, 8] was 128.2 ± 28.0 s, the “No. of flinches % change” value [4, 8] was −35% and the “No. of flinches mean ± SEM” value [4, 8] was 97.2 ± 16.0. The “decrease in the number of flinches” value [4, 8] was 35%, the “decrease in the time spent licking as compared with vehicle controls” value [4, 8] was 56% and the “Licking time % change” value [4, 9] was −30%. For the same compound, the “Licking time (seconds) mean ± SEM” value [4, 9] was 185.2 ± 31.7 s, the “No. of flinches % change” value [4, 9] was “+5%” and the “No. of flinches mean ± SEM” value [4, 9] was 158.2 ± 15.6. The “decrease in the time spent licking” value [4, 9] was 30%, the “effects on number of flinches and time spent licking” value [4, 9] was “no significant effects” and the “Licking time % change” value [4, 10] was −4%. The “Licking time (seconds) mean ± SEM” value [4, 10] was 168.5 ± 23.9 s, the “No. of flinches % change” value [4, 10] was −31% and the “No. of flinches mean ± SEM” value [4, 10] was 113.9 ± 23.2. For the same compound, the “decrease in the number of flinches” value [4, 10] was 31%, the “effect on the time spent licking” value [4, 10] was “no clear effects” and the “Licking time % change” value [4, 11] was −52%. The “Licking time (seconds) mean ± SEM” value [4, 11] was 85.1 ± 19.1 s, the “No. of flinches % change” value [4, 11] was −48% and the “No. of flinches mean ± SEM” value [4, 11] was 85.8 ± 14.4. For the same compound, the “decrease in the number of flinches” value [4, 11] was 48%, the “decrease in the time spent licking” value [4, 11] was 52% and the “Licking time % change” value [4, 12] was −9%. For the same compound, the “Licking time (seconds) mean ± SEM” value [4, 12] was 174.7 ± 20.4 s, the “No. of flinches % change” value [4, 12] was −13% and the “No. of flinches mean ± SEM” value [4, 12] was 99.2 ± 16.6. The “effect on the time spent licking” value [4, 12] was “no clear effects”, the “Licking time % change” value [4, 13] was −59% and the “Licking time (seconds) mean ± SEM” value [4, 13] was 78.9 ± 20.4 s. For the same compound, the “No. of flinches % change” value [4, 13] was −12%, the “No. of flinches mean ± SEM” value [4, 13] was 100.3 ± 22.3 and the “decrease in the time spent licking” value [4, 13] was 59%. The “effect on the number of flinches as compared with vehicle controls” value ([4]; Example 7, lacosamide 10 and 20 mg/kg i.p.) was “did not clearly affect”, the “mechanical hyperalgesia (paw pressure withdrawal threshold) compared to iodoacetate/vehicle treated animals” value ([5]; day 3, 3 mg/kg (lacosamide p.o., morphine s.c.)) was “increase in paw pressure withdrawal threshold” and the “mechanical hyperalgesia (paw pressure withdrawal threshold)” value ([5]; 3 mg/kg (lacosamide p.o., morphine s.c.)) was “reduced mechanical hyperalgesia”. The “mechanical hyperalgesia (paw pressure withdrawal threshold)” value ([5]; 30 mg/kg (lacosamide p.o., diclofenac s.c.)) was “reduced mechanical hyperalgesia”.
